{"source": "patent US20120190723A1", "about": "“VIRAL MODULATORS AND PROCESSES THEREOF” (priority 2010, published 2012)", "key": {"[1]": {"test_system": "VEEV TC-83", "assay": "microbe, parasite or virus in culture", "format": "cell-based, Venezuelan Equine Encephalitis Virus", "details": "for effect on VEEV induced CPE: 1 μM, 48 hours post infection"}, "[2]": {"test_system": "VEEV TC-83", "format": "cell-based, Venezuelan Equine Encephalitis Virus", "details": "1 μM"}, "[3]": {"test_system": "HIV-1 LTR Tat dependent transcription", "assay": "cells", "details": "Human immunodeficiency virus 1, TZM-bl, read-out: % Inhibition at 1 μM"}, "[4]": {"test_system": "HIV-1 dual tropic 89.6", "assay": "HIV-1 89.6 replication in primary monocyte/macrophages (RT assay)", "format": "cell-based", "details": "Human immunodeficiency virus 1, Primary macrophage, 168 h; 89.6 infection, RT day 7"}, "[5]": {"test_system": "HIV-1 dual tropic 89.6", "assay": "HIV-1 89.6 replication in U87MG cells (RT assay)", "format": "cell-based", "details": "Human immunodeficiency virus 1, U-87 MG, 168 h; 89.6 infection, RT day 7"}, "[6]": {"test_system": "monocyte/macrophage from two healthy donors and U87MG", "assay": "MTT toxicity in monocyte/macrophages and U87MG", "format": "cell-based", "details": "primary cells or cell line"}, "[7]": {"test_system": "HIV-rtTA KWK (Tat+) and KYK (Tat−) clones", "assay": "dox-dependent HIV-rtTA variants (KWK, KYK) in macrophages, RT assay", "format": "cell-based, HIV-1", "details": "BIOder 50 nM, dox 1000 ng/ml, RT day 10"}, "[8]": {"test_system": "Rat mixed hippocampal cultures exposed to Tat1-72", "assay": "Tat neurotoxicity in rat mixed hippocampal cultures (MTT)", "format": "cell-based", "details": "for protection against Tat mediated neurodegeneration: 1.0 and 3.0 uM, p<0.05, 500 nM Tat1-72, 18 hours; for neurotoxicity: 5.0 and 10.0 uM", "method": "After approximately 18 hours, cell survival may be measured by MTT assay. Statistical significance may be determined by ANOVA, followed by Newman-Keuls post hoc pair-wise comparisons.\nIn some aspects of embodiments, rat mixed hippocampal cultures may be preincubated with BIO prior to exposure to Tat. Cell death may be analyzed approximately 18 hours after Tat exposure by MTT assay."}, "[9]": {"test_system": "VEEV TC-83", "assay": "microbe, parasite or virus in culture", "format": "cell-based", "details": "Venezuelan equine encephalitis virus, U-87 MG, read-out: IC50, VEEV replication"}, "[10]": {"test_system": "survivin, BID", "format": "cell-based"}, "[11]": {"test_system": "VEEV TC-83", "format": "in vivo, C3H/HeN mice", "details": "for survival rate: SQ days −1, 1, 3, 5, BIO 50 mg/kg, BIOder 20 mg/kg, 14 days, vehicle 10%; for survival differential: vs vehicle control"}, "[12]": {"test_system": "U87MG astrocytes", "details": "for cellular viability of BIO analogs: 1 μM"}, "[13]": {"details": "in vivo"}, "[14]": {"assay": "in vitro", "details": "human"}, "[15]": {"target": "T1, GSK-3β (Homo sapiens, UniProt P49841)", "assay": "GSK-3β immunoprecipitation in vitro kinase assay (U937 cells)"}, "[16]": {"target": "T1, GSK-3β", "format": "biochemical", "design": "Cells may be lysed and immunoprecipitated with control IgG and/or GSK-3β antibody; endogenous in cells"}, "[17]": {"test_system": "HIV-1 LTR Tat dependent transcription", "details": "TZM-bl cells transfected with Tat, compared to the DMSO control"}}, "note": "“Also recorded” adds a separate entry of the source. Where a name gives a salt, the structure may show the parent alone. Read-outs that look alike come from different tables or passages of the source. Starred links: 1 amine or outer side, 2 acyl side, 3 side chain; linkers in the order of their positions; H or OH if unused. Positions of bridges follow the written chain, without caps; N, C: chain ends. Non-standard residues stand in square brackets, D forms with d. Residues, ends and D or L forms follow the SMILES beside them. Chains are numbered I, II in the order given. Actinocin(9to1) = Cc1c2oc3c(C)ccc(C(=O)[*:1])c3nc-2c(C(=O)[*:2])c(N)c1=O; NMeV = CN[C@H](C(=O)O)C(C)C; Sar = CNCC(=O)O"}
{"smiles": "Cc1ccc2c(c1Br)C(=NNc1ccccc1)C(=O)N2", "note": "[Compound 17, 4-bromo-5-methyl-1H-indole-2,3-dione 3-(phenylhydrazone)]", "values": [{"measurement": "effect on VEEV induced CPE", "setting": "[1]", "result": "inhibit CPE"}]}
{"smiles": "Cc1ccc2c(c1Br)/C(=N/O)C(=O)N2", "note": "[Compound 4, 4-bromo-5-methyl-1H-indole-2,3-dione 3-oxime]", "values": [{"measurement": "effect on VEEV (FIG. 11)", "setting": "[2]", "result": "VEEV activators"}]}
{"smiles": "Cc1c2oc3c(C)ccc(C(=O)N[C@@H]4C(=O)N[C@H](C(C)C)C(=O)N5CCC[C@H]5C(=O)N(C)CC(=O)N(C)[C@@H](C(C)C)C(=O)O[C@@H]4C)c3nc-2c(C(=O)N[C@@H]2C(=O)N[C@H](C(C)C)C(=O)N3CCC[C@H]3C(=O)N(C)CC(=O)N(C)[C@@H](C(C)C)C(=O)O[C@@H]2C)c(N)c1=O", "note": "[Dactiniomycin, Dactinomycin] (I: T[dV]P[Sar][NMeV] / II: T[dV]P[Sar][NMeV]; ester I:1-I:C, II:1-II:C; linker I:N-II:N via Actinocin(9to1))", "values": [{"measurement": "inhibition at 1 µM", "setting": "[3]", "result": 98, "unit": "%"}]}
{"smiles": "Cc1cc2c(cc1Br)NC(=O)/C2=N/N=C1/C(=O)Nc2cc(Br)c(C)cc21", "note": "[Compound 6, 6-bromo-5-methyl-1H-indole-2,3-dione 3-[(6-bromo-5-methyl-2-oxo-1,2-dihydro-3H-indol-3-ylidene)hydrazone]]", "values": [{"measurement": "IC50", "setting": "[4]", "result": "~4", "unit": "nM"}, {"measurement": "IC50", "setting": "[5]", "result": "~0.5", "unit": "nM"}, {"measurement": "Cytotoxic concentration (MTT)", "setting": "[6]", "result": "> 10", "unit": "µM"}, {"measurement": "viral replication of KWK (Tat+) and KYK (Tat−) clones", "setting": "[7]", "result": "inhibited in the KWK (Tat+) and not KYK (Tat−) clone"}, {"measurement": "protection against Tat mediated neurodegeneration", "setting": "[8]", "result": "protective effect"}, {"measurement": "neurotoxicity", "setting": "[8]", "result": "no neurotoxicity observed"}, {"measurement": "IC50", "setting": "[9]", "result": "~500", "unit": "nM"}, {"measurement": "effect on VEEV induced CPE", "setting": "[1]", "result": "inhibit CPE; also recorded: particularly strong inhibition"}, {"measurement": "cellular viability of VEEV infected cells", "setting": "[1]; 72 hours post-infection, all concentrations employed", "result": "relative increase in cellular viability"}, {"measurement": "IC50", "setting": "[1]; Venezuelan equine encephalitis virus, U-87 MG, read-out: IC50 for inhibition of VEEV induced CPE", "result": "< 100", "unit": "nM"}, {"measurement": "BID expression", "setting": "[10]", "result": "relatively strong decrease"}, {"measurement": "survivin expression", "setting": "[10]", "result": "relative increase in the expression of survivin"}, {"measurement": "survival rate", "setting": "[11]", "result": "approximately 50%"}, {"measurement": "survival differential", "setting": "[11]", "result": "approximately 40%"}, {"measurement": "cellular viability", "setting": "[12]", "result": "no substantial effect on cellular viability"}, {"measurement": "mouse weight", "setting": "[13]", "result": "substantially no treatment group showed weight loss"}, {"measurement": "signs of toxicity (lethargy, ruffling of coats, weight loss)", "setting": "[13]; mouse", "result": "Substantially no signs of toxicity"}, {"measurement": "CC50", "setting": "[14]", "result": "> 100", "unit": "µM"}, {"measurement": "IC50", "setting": "[15]", "result": "~0.03", "unit": "nM"}, {"measurement": "inhibition of GSK-3β kinase activity", "setting": "[15]; at approximately 1 nM, glycogen synthase peptide 2 substrate", "result": "approximately 90%"}, {"measurement": "GSK3-β kinase activity", "setting": "[16]", "result": "much more relatively dramatic influence"}]}
{"smiles": "COc1cccc2c1C(=O)c1c(O)c3c(c(O)c1C2=O)C[C@@](O)(C(=O)CO)C[C@@H]3O[C@H]1C[C@H](N)[C@@H](O)[C@H](C)O1", "note": "[Epirubicin hydrochloride]", "values": [{"measurement": "inhibition at 1 µM", "setting": "[3]", "result": 17, "unit": "%"}]}
{"smiles": "C=C[C@H]1CN2CC[C@H]1C[C@H]2[C@H](OC(=O)OCC)c1ccnc2ccc(OC)cc12", "note": "[Quinine ethyl carbonate]", "values": [{"measurement": "inhibition at 1 µM", "setting": "[3]", "result": 34, "unit": "%"}]}
{"smiles": "O=C1Nc2ccccc2/C1=C1/Nc2ccccc2/C1=N\\O", "note": "[Indirubin-3′-oxime]", "values": [{"measurement": "% Inhibition at 1 μM", "setting": "[17]", "result": 25, "unit": "%"}]}
{"smiles": "O=C1Nc2ccc(Cl)cc2/C1=C1\\C(=O)Nc2ccc(Br)cc21", "note": "[Compound 34, 5-bromo-5′-chloro-3,3′-biindole-2,2′(1H,1′H)-dione]", "values": [{"measurement": "cellular viability of BIO analogs", "setting": "[12]", "result": "decrease in cellular viability"}]}
{"smiles": "O=C1Nc2cc(Br)ccc2/C1=C1/Nc2ccccc2/C1=N\\O", "note": "[BIO, 6-bromoindirubin-3′-oxime, reference compound]", "values": [{"measurement": "protection against Tat mediated neurodegeneration", "setting": "[8]", "result": "significant neuroprotective effects"}, {"measurement": "neurotoxicity", "setting": "[8]", "result": "neurotoxicity observed"}, {"measurement": "LD50 (neurotoxicity)", "setting": "[8]; rat mixed hippocampal cultures", "result": "approximately 4 uM"}, {"measurement": "survivin expression", "setting": "[10]", "result": "relatively increase survivin expression"}, {"measurement": "survival rate", "setting": "[11]", "result": "~30", "unit": "%"}, {"measurement": "survival differential", "setting": "[11]", "result": "approximately 20%"}]}
{"smiles": "Cc1cc(C(=O)N/N=C2\\C(=O)Nc3ccc(Br)cc32)[nH]n1", "note": "[Compound 32, N′-(5-bromo-2-oxo-1,2-dihydro-3H-indol-3-ylidene)-3-methyl-1Hpyrazole-5-carbohydrazide]", "values": [{"measurement": "cellular viability of BIO analogs", "setting": "[12]", "result": "decrease in cellular viability"}]}
{"smiles": "Cc1c(Cl)ccc2c1NC(=O)/C2=C1/C(=O)Nc2ccccc21", "note": "[Compound 38, 6-chloro-7-methyl-3,3′-biindole-2,2′(1H,1′H)-dione]", "values": [{"measurement": "effect on VEEV (FIG. 11)", "setting": "[2]", "result": "VEEV activators"}]}
{"smiles": "O=C1Nc2ccc(Br)cc2/C1=N/NC(=O)c1ccc(Cl)cc1Cl", "note": "[Compound 16, N′-(5-bromo-2-oxo-1,2-dihydro-3H-indol-3-ylidene)-2,4-dichlorobenzohydrazide]", "values": [{"measurement": "cellular viability of BIO analogs", "setting": "[12]", "result": "decrease in cellular viability"}]}
{"smiles": "O=C1Nc2c(Br)cc(Br)cc2/C1=N/NC(=O)c1cc(-c2ccccc2)n[nH]1", "note": "[Compound 24, N′-(5,7-dibromo-2-oxo-1,2-dihydro-3H-indol-3-ylidene)-3-phenyl-1Hpyrazole-5-carbohydrazide]", "values": [{"measurement": "effect on VEEV induced CPE", "setting": "[1]", "result": "increase observed CPE"}]}
{"smiles": "Cc1ccc2c(c1Br)/C(=N/NC(=O)Nc1ccccc1)C(=O)N2", "note": "[Compound 5, 4-bromo-5-methyl-1H-indole-2,3-dione 3-(N-phenylsemicarbazone)]", "values": [{"measurement": "effect on VEEV induced CPE", "setting": "[1]", "result": "increase observed CPE"}]}
{"smiles": "O=C1NC(=O)/C(=C2/C(=O)Nc3ccc(Br)cc32)N1", "note": "[Compound 33, 5-(5-bromo-2-oxo-1,2-dihydro-3H-indol-3-ylidene)-2,4-imidazolidinedione]", "values": [{"measurement": "cellular viability of BIO analogs", "setting": "[12]", "result": "decrease in cellular viability"}]}
{"smiles": "COc1ccc(-c2cc(C(=O)N/N=C3/C(=O)Nc4ccc(Br)cc43)[nH]n2)cc1", "note": "[Compound 28, N′-(5-bromo-2-oxo-1,2-dihydro-3H-indol-3-ylidene)-3-(4-methoxyphenyl)-1H-pyrazole-5-carbohydrazide]", "values": [{"measurement": "effect on VEEV induced CPE", "setting": "[1]", "result": "inhibit CPE"}]}
{"smiles": "O=C1Nc2ccc(Br)cc2/C1=N\\NC(=O)c1ccccc1NC(=O)c1ccccc1", "note": "[Compound 31, N-(2-{[2-(5-bromo-2-oxo-1,2-dihydro-3H-indol-3-ylidene)hydrazino]carbonyl}phenyl)benzamide]", "values": [{"measurement": "effect on VEEV induced CPE", "setting": "[1]", "result": "inhibit CPE"}]}
{"smiles": "Cc1[nH]c2ccc(Br)cc2c1CC(=O)N/N=C1/C(=O)Nc2ccccc21", "note": "[Compound 21, 2-(5-bromo-2-methyl-1H-indol-3-yl)-N′-(2-oxo-1,2-dihydro-3H-indol-3-ylidene)acetohydrazide]", "values": [{"measurement": "effect on VEEV (FIG. 11)", "setting": "[2]", "result": "VEEV activators"}]}
